One assay relates to BET BD2. The conditions noted are these: public sources, not a head-to-head trial, cited from earlier work; for Selectivity (BD1/BD2): comparator; for BD2: comparator BET inhibitors.
The target of the next assay is T1, BRD4 BD1 (Homo sapiens, UniProt O60885).
T1 construct: HEK293 cells were transfected using NanoLuc-BRD4-BD1 or NanoLuc-BRD4-BD2 fusion vectors
The experiment in a line: NanoBRET bromodomain assay, NanoLuc-BRD4-BD1 in HEK293 cells. It is filed as binding. Here is the method:
Exemplary compounds of the disclosure are active against BRD4 BD2 and selective over BRD4 BD1. BRD4 is a representative example of the BET family, as the binding sites of all BET family members are structurally similar. […] IC50s and fold selectivity's are determined as described below and are represented in Table 1.
(§1) Plates were then incubated at 37° C.+5% CO2 incubator for 2 hours.
(§2) Fold Selectivity Calculated (IC50 BD1/IC50 BD2).

In the next assay the target is T2, BRD4 BD2 (Homo sapiens, UniProt O60885).
T2 construct: HEK293 cells were transfected using NanoLuc-BRD4-BD1 or NanoLuc-BRD4-BD2 fusion vectors
Kind of assay: NanoBRET bromodomain assay, NanoLuc-BRD4-BD2 in HEK293 cells. It is filed as binding. As to conditions: for Fold Selectivity BRD4 BD1/BD2: IC50 BD1/IC50 BD2, qualitative if an IC50 is at the upper limit. Here is the method: as §1, §2

This is an account of results in patent US20260217701A1, “SELECTIVE BET INHIBITORS AND USES THEREOF” (Tay Therapeutics Limited, priority 2022, published 2026).

Read-outs that look alike come from different tables or passages of the source.

Consider NUV-868, for which, in the assay on BET BD2 (FRET), the “Selectivity (BD1/BD2)” value is 1,460x (FRET). Moreover, the BD2 with BET BD2 is 2 nM.
As for `CNc1nc(-c2nc3ccc(N4CCN(C)CC4)cc3n2Cc2ccccc2)cn2c(C)nnc12` [BI-894999], the BD2 with BET BD2 is 41 nM. The “Selectivity (BD1/BD2)” value with BET BD2 (nanoBRET assay) is recorded as 0.1x.
Turning to `Cc1sc2c(c1C)C(c1ccc(Cl)cc1)=N[C@@H](CC(=O)Nc1ccc(O)cc1)c1nnc(C)n1-2` [MK-8628/OTX-015], the BD2 in the assay with BET BD2 is 26 nM. Further, the “Selectivity (BD1/BD2)” value in the assay on BET BD2 (nanoBRET assay) is 1.5x.
For the compound `Cc1noc2c1-c1ccccc1C(c1ccc(Cl)cc1)=N[C@H]2CC(N)=O` [Pelabresib], the “Selectivity (BD1/BD2)” value in the assay with BET BD2 (FRET) was 5x (FRET). Also, the BD2 in the assay with BET BD2 was 17 nM.
On to `Cn1cc(-c2cc(=O)n(C3CC3)cc2-c2ccccc2)c2cc(-c3ccccc3F)[nH]c2c1=O` [Example 47, 4-(1-cyclopropyl-2-oxo-5-phenyl-1,2-dihydropyridin-4-yl)-2-(2-fluorophenyl)-6-methyl-1,6-dihydro-7H-pyrrolo[2,3-c]pyridin-7-one], for which the figures for the IC50 at BRD4 BD1 and on BRD4 BD2 were greater than 1000 nM and less than 10 nM, respectively. Besides, the “Fold Selectivity BRD4 BD1/BD2” value at BRD4 BD2 is recorded as “xxxx (Fold >1000)”.
Consider `Cn1cc(-c2cc(=O)n(C3CC3)cc2-c2ccccc2)c2cc(-c3cccc(F)c3F)[nH]c2c1=O` [Example 48, 4-(1-cyclopropyl-2-oxo-5-phenyl-1,2-dihydropyridin-4-yl)-2-(2,3-difluorophenyl)-6-methyl-1,6-dihydro-7H-pyrrolo[2,3-c]pyridin-7-one], for which the IC50 against BRD4 BD1 was greater than 1000 nM; against BRD4 BD2 it was less than 10 nM. In addition, the “Fold Selectivity BRD4 BD1/BD2” value at BRD4 BD2 is on record as “xxxx (Fold >1000)”.
In turn, `Cc1cc(-c2cc3c(-c4cc(=O)n(C)cc4-c4ccccc4C)cn(C)c(=O)c3[nH]2)cc(C)n1.Cl` [Example 27, 2-(2,6-dimethylpyridin-4-yl)-6-methyl-4-(1-methyl-2-oxo-5-(o-tolyl)-1,2-dihydropyridin-4-yl)-1,6-dihydro-7H-pyrrolo[2,3-c]pyridin-7-one hydrochloride] had an IC50 against BRD4 BD1 greater than 1000 nM. Besides, on BRD4 BD2, the IC50 fell in the range of 10 to 50 nM; the “Fold Selectivity BRD4 BD1/BD2” value is “xxx (Fold >200 and ≤1000)”.
Regarding `Cn1cc(-c2cccnc2)c(-c2cn(C)c(=O)c3[nH]c(-c4ccc(F)cc4F)cc23)cc1=O` [Example 37, 2-(2,4-difluorophenyl)-6-methyl-4-(1-methyl-6-oxo-1,6-dihydro-[3,3′-bipyridin]-4-yl)-1,6-dihydro-7H-pyrrolo[2,3-c]pyridin-7-one], the IC50 against BRD4 BD1 is greater than 1000 nM. Besides, on BRD4 BD2, the IC50 fell in the range of 10 to 50 nM; the “Fold Selectivity BRD4 BD1/BD2” value was “xxx (Fold >200 and ≤1000)”.
`Cc1cc(-c2cc3c(-c4cc(=O)n(C)cc4-c4ccc(C#N)cc4)cn(C)c(=O)c3[nH]2)cc(C)n1.Cl` [Example 29, 4-(4-(2-(2,6-dimethylpyridin-4-yl)-6-methyl-7-oxo-6,7-dihydro-1H-pyrrolo[2,3-c]pyridin-4-yl)-1-methyl-6-oxo-1,6-dihydropyridin-3-yl)benzonitrile hydrogen chloride] gave an IC50 against BRD4 BD1 greater than 1000 nM. In addition, at BRD4 BD2, the IC50 was in the range of 10 to 50 nM; the “Fold Selectivity BRD4 BD1/BD2” value is “xxx (Fold >200 and ≤1000)”.
Turning to `CSCc1cccc(-c2cn(C)c(=O)cc2-c2cn(C)c(=O)c3[nH]c(-c4cnn(C(F)(F)F)c4)cc23)c1` [Example 25, 6-methyl-4-(1-methyl-5-(3-((methylthio)methyl)phenyl)-2-oxo-1,2-dihydropyridin-4-yl)-2-(1-(trifluoromethyl)-1H-pyrazol-4-yl)-1,6-dihydro-7H-pyrrolo[2,3-c]pyridin-7-one], the 50% inhibitory concentration (IC50) on BRD4 BD1 is greater than 1000 nM; at BRD4 BD2 it was less than 10 nM. Moreover, the “Fold Selectivity BRD4 BD1/BD2” value on BRD4 BD2 is “xxxx (Fold >1000)”.
On to `Cn1cc(-c2cc(=O)n(C3COC3)cc2-c2ccccc2)c2cc(-c3cnn(C(F)(F)F)c3)[nH]c2c1=O` [Example 5, 6-methyl-4-(1-(oxetan-3-yl)-2-oxo-5-phenyl-1,2-dihydropyridin-4-yl)-2-(1-(trifluoromethyl)-1H-pyrazol-4-yl)-1,6-dihydro-7H-pyrrolo[2,3-c]pyridin-7-one], for which the IC50 against BRD4 BD1 was greater than 1000 nM; at BRD4 BD2 it was 10 to 50 nM. Besides, on BRD4 BD2, the “Fold Selectivity BRD4 BD1/BD2” value was “xxx (Fold >200 and ≤1000)”.
`Cc1cc(-c2cc3c(-c4cc(=O)n(C)cc4-c4cccc(S(C)(=O)=O)c4)cn(C)c(=O)c3[nH]2)cc(C)n1` [Example 89]: the IC50 at BRD4 BD1 is greater than 1000 nM. In addition, on BRD4 BD2, the half-maximal inhibitory concentration (IC50) lay within 50 to 200 nM; the “Fold Selectivity BRD4 BD1/BD2” value is “xx (Fold >50 and ≤200)”.
